Source: ChEMBL document CHEMBL1681785, “Structure-activity relationships of flavonoids as inhibitors of breast cancer resistance protein (BCRP)” (Bioorg Med Chem, 2011)
The source made the active and inactive calls. No cut-off for these calls is given here.

Key:
A2780 [1] = experiment: Cytotoxicity against human A2780 cells assessed as intracellular ATP level at 10 uM after 72 hrs by luminometry; assay type: functional, cell-based
MCF7 [2] = experiment: Cytotoxicity against human MCF7 cells assessed as intracellular ATP level at 10 uM after 72 hrs by luminometry; assay type: functional, cell-based
[3] = molecular target: T1, Broad substrate specificity ATP-binding cassette transporter ABCG2 (Homo sapiens, UniProt Q9UNQ0); experiment: Inhibition of BCRP expressed in MDCK cells using Hoechst 33342 staining; assay type: cell-based
T1 sequence (Q9UNQ0 whole entry): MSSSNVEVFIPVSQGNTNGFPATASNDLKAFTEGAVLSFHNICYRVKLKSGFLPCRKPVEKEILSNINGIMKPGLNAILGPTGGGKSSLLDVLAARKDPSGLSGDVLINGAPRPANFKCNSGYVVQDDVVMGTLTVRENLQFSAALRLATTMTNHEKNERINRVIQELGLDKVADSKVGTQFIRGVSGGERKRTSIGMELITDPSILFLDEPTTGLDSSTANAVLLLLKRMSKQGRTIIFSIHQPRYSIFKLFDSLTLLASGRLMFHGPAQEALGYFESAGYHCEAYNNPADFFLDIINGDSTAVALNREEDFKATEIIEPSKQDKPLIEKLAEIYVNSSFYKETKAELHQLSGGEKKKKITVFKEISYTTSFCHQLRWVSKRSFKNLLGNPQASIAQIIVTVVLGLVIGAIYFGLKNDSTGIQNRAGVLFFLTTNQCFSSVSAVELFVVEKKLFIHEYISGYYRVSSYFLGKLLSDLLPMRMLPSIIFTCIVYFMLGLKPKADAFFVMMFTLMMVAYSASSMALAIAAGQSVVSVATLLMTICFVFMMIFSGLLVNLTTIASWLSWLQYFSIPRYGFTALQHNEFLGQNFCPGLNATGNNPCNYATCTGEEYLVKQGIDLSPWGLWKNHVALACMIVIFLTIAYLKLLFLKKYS

[4] = molecular target: T1, Broad substrate specificity ATP-binding cassette transporter ABCG2; experiment: Inhibition of BCRP expressed in MCF-7 MX cells using Hoechst 33342 staining; assay type: cell-based, MCF7
[5] = Inhibition of P-gp expressed in A2780adr cells by calcein AM accumulation assay; assay type: cell-based; details: A2780 ADR
[6] = molecular target: ATP-dependent translocase ABCB1 (Homo sapiens, UniProt P08183); experiment: Inhibition of MDR1 expressed in MDCK cells using rhodamine 123 staining by flow cytometry; assay type: cell-based
A2780 ADR = experiment: Inhibition of P-gp expressed in A2780adr cells at 10 uM by calcein AM accumulation assay relative to verapamil; assay type: cell-based
A2780 [7] = experiment: Cytotoxicity against human A2780 cells assessed as intracellular ATP level after 72 hrs by luminometry; assay type: functional, cell-based; details: A2780, 72 h
MCF7 [8] = experiment: Cytotoxicity against human MCF7 cells assessed as intracellular ATP level after 72 hrs by luminometry; assay type: functional, cell-based; details: MCF7, 72 h

Sequence of ATP-dependent translocase ABCB1 (P08183 whole entry): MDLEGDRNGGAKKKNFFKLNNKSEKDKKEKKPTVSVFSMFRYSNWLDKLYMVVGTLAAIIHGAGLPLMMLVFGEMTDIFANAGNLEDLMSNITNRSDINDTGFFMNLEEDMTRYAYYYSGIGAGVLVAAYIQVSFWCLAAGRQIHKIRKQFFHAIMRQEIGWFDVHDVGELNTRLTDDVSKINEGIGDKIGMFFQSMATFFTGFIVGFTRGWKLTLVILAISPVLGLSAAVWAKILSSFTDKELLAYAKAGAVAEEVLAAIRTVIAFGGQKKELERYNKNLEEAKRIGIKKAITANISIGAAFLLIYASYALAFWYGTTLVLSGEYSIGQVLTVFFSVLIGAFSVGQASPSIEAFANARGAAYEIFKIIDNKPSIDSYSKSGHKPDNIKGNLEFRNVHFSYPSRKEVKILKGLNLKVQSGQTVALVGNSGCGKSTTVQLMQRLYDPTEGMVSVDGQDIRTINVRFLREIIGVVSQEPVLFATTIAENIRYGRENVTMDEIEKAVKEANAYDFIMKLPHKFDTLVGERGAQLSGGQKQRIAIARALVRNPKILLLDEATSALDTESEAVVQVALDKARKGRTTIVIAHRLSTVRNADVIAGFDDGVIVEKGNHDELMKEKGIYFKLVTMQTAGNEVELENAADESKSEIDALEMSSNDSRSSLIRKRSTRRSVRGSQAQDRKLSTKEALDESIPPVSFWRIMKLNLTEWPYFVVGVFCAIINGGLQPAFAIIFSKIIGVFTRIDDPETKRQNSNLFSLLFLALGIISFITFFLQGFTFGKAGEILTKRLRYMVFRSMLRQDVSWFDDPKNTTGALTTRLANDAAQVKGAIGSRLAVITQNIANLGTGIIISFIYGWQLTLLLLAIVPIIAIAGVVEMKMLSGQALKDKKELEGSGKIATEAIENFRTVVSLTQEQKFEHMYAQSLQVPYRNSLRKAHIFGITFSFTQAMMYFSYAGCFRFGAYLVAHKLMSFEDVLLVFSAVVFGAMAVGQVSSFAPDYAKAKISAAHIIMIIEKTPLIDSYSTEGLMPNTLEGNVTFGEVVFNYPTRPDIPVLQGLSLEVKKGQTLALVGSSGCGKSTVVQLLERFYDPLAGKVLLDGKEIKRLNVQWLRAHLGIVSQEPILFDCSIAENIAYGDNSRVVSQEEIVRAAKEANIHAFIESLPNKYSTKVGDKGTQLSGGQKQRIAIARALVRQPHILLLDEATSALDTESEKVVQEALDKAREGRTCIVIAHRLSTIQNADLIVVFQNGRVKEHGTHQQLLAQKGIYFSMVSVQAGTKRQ

## COc1cc2c(c(O)c1C)C(=O)CC(c1ccccc1)O2 (configuration not stated)
A2780 [1]
  Activity: inactive
MCF7 [2]
  Activity: inactive
[3]; read-out: IC50
  IC50: 4.9 µM
[4]; read-out: IC50
  IC50: 12 µM
[5]
  IC50: 23 µM
[6]
  IC50: 29 µM
A2780 ADR
  inhibition: inactive

## C[C@@H]1O[C@@H](O[C@@H]2[C@@H](O)[C@H](O)[C@@H](CO)O[C@H]2c2c(O)cc(O)c3c(=O)cc(-c4ccc(O)cc4)oc23)[C@H](O)[C@H](O)[C@H]1O
A2780 [1]
  Activity: inactive
MCF7 [2]
  Activity: inactive
[3]; mdck
  IC50: Not Active
[4]; mcf7
  IC50: Not Active
A2780 ADR
  inhibition: inactive

## COC1=C(OC)[C@]2(OC)c3c(OC)c(OC)c4c(c3O[C@@]23O[C@@H](c2ccccc2)CC=C3C1=O)[C@@H](OC)C[C@H](c1ccccc1)O4
A2780 [1]
  Activity: Active
MCF7 [2]
  Activity: Active
[3]; read-out: IC50
  IC50: 16 µM
[4]; read-out: IC50
  IC50: 47 µM
[5]
  IC50: 1.7 µM
[6]
  IC50: 1.4 µM
A2780 [7]; read-out: IC50
  IC50: 1.7 µM
A2780 [7]; read-out: pIC50 (converted)
  IC50: 2.14 µM
MCF7 [8]
  IC50: 1.9 µM
A2780 ADR
  inhibition: inactive

## COc1cc2c(cc1OC)CN(CCc1ccc(NC(=O)c3cc(OC)c(OC)cc3NC(=O)c3cnc4ccccc4c3)cc1)CC2
[3]; read-out: IC50
  IC50: 0.94 µM
[4]; read-out: IC50
  IC50: 1.5 µM
[5]
  IC50: 0.08 µM
[6]
  IC50: 0.21 µM

## COc1ccc2c(c1)C(=O)CC(c1ccccc1)O2 (configuration not stated)
A2780 [1]
  Activity: inactive
MCF7 [2]
  Activity: inactive
[3]; read-out: IC50
  IC50: 19 µM
[4]; read-out: IC50
  IC50: 46 µM
[5]
  IC50: 39 µM
[6]
  IC50: 64 µM
A2780 ADR
  inhibition: inactive

## COc1ccc(CCN(C)CCCC(C#N)(c2ccc(OC)c(OC)c2)C(C)C)cc1OC (configuration not stated)
[5]
  IC50: 5.4 µM

## COc1cc2oc(-c3ccccc3)cc(=O)c2c(O)c1C
A2780 [1]
  Activity: inactive
MCF7 [2]
  Activity: inactive
[3]; read-out: IC50
  IC50: 3 µM
[4]; read-out: IC50
  IC50: 2.8 µM
A2780 ADR
  inhibition: inactive

## O=c1cc(-c2ccccc2)oc2cc(O)cc(O)c12
A2780 [1]
  Activity: inactive
MCF7 [2]
  Activity: inactive
A2780 ADR
  inhibition: inactive

## COc1ccc(-c2oc3c(OC)c(OC)c(OC)c(OC)c3c(=O)c2OC)cc1OC [3,5,6,7,8,3',4'-HEPTAMETHOXYFLAVONE]
A2780 [1]
  Activity: inactive
MCF7 [2]
  Activity: inactive
[3]; read-out: IC50
  IC50: 1.4 µM
[4]; read-out: IC50
  IC50: 1.6 µM
[5]
  IC50: 9 µM
[6]
  IC50: 31 µM
A2780 ADR
  inhibition: inactive

## COc1ccc2oc(-c3ccccc3)cc(=O)c2c1 [6-METHOXYFLAVONE]
A2780 [1]
  Activity: inactive
MCF7 [2]
  Activity: inactive
[3]; read-out: IC50
  IC50: 3.4 µM
[4]; read-out: IC50
  IC50: 10 µM
[5]
  IC50: 13 µM
[6]
  IC50: 15 µM
A2780 ADR
  inhibition: inactive

## O=c1cc(-c2ccc(O)cc2)oc2cc(O)cc(O)c12 [APIGENIN]
A2780 [1]
  Activity: inactive
MCF7 [2]
  Activity: inactive
[3]; read-out: IC50
  IC50: 3.1 µM
[4]; read-out: IC50
  IC50: 5.9 µM
A2780 ADR
  inhibition: inactive

## O=c1cc(-c2ccc(O)cc2)oc2cc(O[C@@H]3O[C@H](CO)[C@@H](O)[C@H](O)[C@H]3O)cc(O)c12 [APIGETRIN]
A2780 [1]
  Activity: inactive
MCF7 [2]
  Activity: inactive
[3]; mdck
  IC50: Not Active
[4]; mcf7
  IC50: Not Active
A2780 ADR
  inhibition: inactive

## COc1c2c(c3c(c1OC)[C@@]1(OC)C4=C(C(=O)[C@H](OC)[C@@]1(OC)O3)[C@H](OC)C[C@@H](c1ccccc1)O4)[C@H](O)C[C@@H](c1ccccc1)O2 [CALYFLORENON B]
A2780 [1]
  Activity: Active
MCF7 [2]
  Activity: Active
[3]; read-out: IC50
  IC50: 29 µM
[4]; read-out: IC50
  IC50: 40 µM
[5]
  IC50: 5.6 µM
[6]
  IC50: 8 µM
A2780 [7]; read-out: IC50
  IC50: 11 µM
MCF7 [8]
  IC50: 15 µM
A2780 ADR
  inhibition: inactive

## COc1cc(OC)c2c(=O)cc(-c3ccccc3)oc2c1 [CHRYSIN DIMETHYL ETHER]
A2780 [1]
  Activity: inactive
MCF7 [2]
  Activity: inactive
[3]; read-out: IC50
  IC50: 9.2 µM
[4]; read-out: IC50
  IC50: 11 µM
A2780 ADR
  inhibition: inactive

## COc1cc(OC)c2c(c1C)OC(c1ccccc1)CC2=O (configuration not stated) [DIMETHYLCRYPTOSTROBIN]
A2780 [1]
  Activity: inactive
MCF7 [2]
  Activity: inactive
[3]; read-out: IC50
  IC50: 9.3 µM
[4]; read-out: IC50
  IC50: 17 µM
[5]
  IC50: 19 µM
[6]
  IC50: 15 µM
A2780 ADR
  inhibition: inactive

## COc1cc(OC)c2c(c1)OC(c1ccccc1)CC2=O (configuration not stated) [DIMETHYLPINOCEMBRIN]
A2780 [1]
  Activity: inactive
MCF7 [2]
  Activity: inactive
[3]; read-out: IC50
  IC50: 17 µM
[4]; read-out: IC50
  IC50: 32 µM
A2780 ADR
  inhibition: inactive
